Experimental data reported in PMC6979384, “Characterization of the plant homeodomain (PHD) reader family for their histone tail interactions” (Epigenetics & Chromatin, 2020).

Columns and labels:
Experiment in all cases: Histone peptide microarray
Format in all cases: binding, human
[1] = system: AIRE (PP); conditions: AIRE (PP); sheet "Array Heatmap"; each array performed twice, total n = 4
Description: (§1) To more comprehensively define the histone interactions of the 31 PHD readers identified from the domain microarray analyses, we probed each on an alternate microarray platform containing a library of 293 synthetic histone peptides with single or combinatorial PTMs (Additional file 2: Figure S4 and Additional file 3: Table S2).
(§2) The 31 GST-tagged PHD readers identified in the PHD finger domain array were expressed and purified as previously. Histone peptide arrays and peptide pulldown assays were conducted as recently described (specifically, the optimized protocol from Petell et al. for the former).
(§3) Supplementary file 13072_2020_328_MOESM3_ESM.xlsx: Additional file 3: Table S2. […] Excel Tab Peptide List is a compiled list of the entire 293 histone peptide library with amino acid sequence ranges. […] Each number corresponds to the peptide number designated in Peptide List. Excel Tab Average Signals is a compiled set of binding data: chromatin reader at 0.5 μM vs. entire 293 peptide library. Data is presented as the average and standard deviation of 4 replicates. The average signals are colored to indicate signal intensity with green being strong and white being weak/low. […] Key: red= stronger relative binding; blue = weaker relative binding. Excel Tab Array info summary is a table summarizing the domains, sequence coverage, array signal range, and noise for each of the GST-tagged readers assayed on the peptide microarrays.

[2] = system: BAZ2B; conditions: BAZ2B; sheet "Array Heatmap"; each array performed twice, total n = 4
Description: as §1, §2, §3

[3] = system: BPTF (PB); conditions: BPTF (PB); sheet "Array Heatmap"; each array performed twice, total n = 4
Description: as §1, §2, §3

[4] = system: CHD4 (PPCC); conditions: CHD4 (PPCC); sheet "Array Heatmap"; each array performed twice, total n = 4
Description: as §1, §2, §3

[5] = system: CHD5 (PCC); conditions: CHD5 (PCC); sheet "Array Heatmap"; each array performed twice, total n = 4
Description: as §1, §2, §3

[6] = system: CHD5 (PPCC); conditions: CHD5 (PPCC); sheet "Array Heatmap"; each array performed twice, total n = 4
Description: as §1, §2, §3

[7] = system: DIDO1; conditions: DIDO1; sheet "Array Heatmap"; each array performed twice, total n = 4
Description: as §1, §2, §3

[8] = system: DPF2 (PPC2W2); conditions: DPF2 (PPC2W2); sheet "Array Heatmap"; each array performed twice, total n = 4
Description: as §1, §2, §3

[9] = system: ING1; conditions: ING1; sheet "Array Heatmap"; each array performed twice, total n = 4
Description: as §1, §2, §3

[10] = system: ING2; conditions: ING2; sheet "Array Heatmap"; each array performed twice, total n = 4
Description: as §1, §2, §3

[11] = system: ING3; conditions: ING3; sheet "Array Heatmap"; each array performed twice, total n = 4
Description: as §1, §2, §3

[12] = system: ING4; conditions: ING4; sheet "Array Heatmap"; each array performed twice, total n = 4
Description: as §1, §2, §3

[13] = system: ING5; conditions: ING5; sheet "Array Heatmap"; each array performed twice, total n = 4
Description: as §1, §2, §3

[14] = system: KDM4C (TTP); conditions: KDM4C (TTP); sheet "Array Heatmap"; each array performed twice, total n = 4
Description: as §1, §2, §3

[15] = system: KDM5A (1); conditions: KDM5A (1); sheet "Array Heatmap"; each array performed twice, total n = 4
Description: as §1, §2, §3

[16] = system: KDM5A (3); conditions: KDM5A (3); sheet "Array Heatmap"; each array performed twice, total n = 4
Description: as §1, §2, §3

[17] = system: KDM5B (1); conditions: KDM5B (1); sheet "Array Heatmap"; each array performed twice, total n = 4
Description: as §1, §2, §3

[18] = system: KDM5B (3); conditions: KDM5B (3); sheet "Array Heatmap"; each array performed twice, total n = 4
Description: as §1, §2, §3

[19] = system: KDM7A; conditions: KDM7A; sheet "Array Heatmap"; each array performed twice, total n = 4
Description: as §1, §2, §3

[20] = system: MLL5; conditions: MLL5; sheet "Array Heatmap"; each array performed twice, total n = 4
Description: as §1, §2, §3

[21] = system: MORC3 (CW); conditions: MORC3 (CW); sheet "Array Heatmap"; each array performed twice, total n = 4
Description: as §1, §2, §3

[22] = system: PHF13; conditions: PHF13; sheet "Array Heatmap"; each array performed twice, total n = 4
Description: as §1, §2, §3

[23] = system: PHF21A; conditions: PHF21A; sheet "Array Heatmap"; each array performed twice, total n = 4
Description: as §1, §2, §3

[24] = system: PHF23; conditions: PHF23; sheet "Array Heatmap"; each array performed twice, total n = 4
Description: as §1, §2, §3

[25] = system: PHF2; conditions: PHF2; sheet "Array Heatmap"; each array performed twice, total n = 4
Description: as §1, §2, §3

[26] = system: PHF8; conditions: PHF8; sheet "Array Heatmap"; each array performed twice, total n = 4
Description: as §1, §2, §3

[27] = system: PHRF1 (RP); conditions: PHRF1 (RP); sheet "Array Heatmap"; each array performed twice, total n = 4
Description: as §1, §2, §3

[28] = system: RAG2; conditions: RAG2; sheet "Array Heatmap"; each array performed twice, total n = 4
Description: as §1, §2, §3

[29] = system: SP140L; conditions: SP140L; sheet "Array Heatmap"; each array performed twice, total n = 4
Description: as §1, §2, §3

[30] = system: TAF3; conditions: TAF3; sheet "Array Heatmap"; each array performed twice, total n = 4
Description: as §1, §2, §3

[31] = system: TRIM66 (PB); conditions: TRIM66 (PB); sheet "Array Heatmap"; each array performed twice, total n = 4
Description: as §1, §2, §3

Substance	Array Heatmap value (peptide array signal) [1]	Array Heatmap value (peptide array signal) [2]	Array Heatmap value (peptide array signal) [3]	Array Heatmap value (peptide array signal) [4]	Array Heatmap value (peptide array signal) [5]	Array Heatmap value (peptide array signal) [6]	Array Heatmap value (peptide array signal) [7]	Array Heatmap value (peptide array signal) [8]	Array Heatmap value (peptide array signal) [9]	Array Heatmap value (peptide array signal) [10]	Array Heatmap value (peptide array signal) [11]	Array Heatmap value (peptide array signal) [12]	Array Heatmap value (peptide array signal) [13]	Array Heatmap value (peptide array signal) [14]	Array Heatmap value (peptide array signal) [15]	Array Heatmap value (peptide array signal) [16]	Array Heatmap value (peptide array signal) [17]	Array Heatmap value (peptide array signal) [18]	Array Heatmap value (peptide array signal) [19]	Array Heatmap value (peptide array signal) [20]	further results
H2BK12ac: H2B 1-24 [Peptide H2BK12ac]	0.3561	0.3626	0.2975	0.55	0.7553	0.4364	0.6693	0.6335	0.4874	0.5927	0.413	0.3767	0.2703	0.3788	0.3805	0.4192	0.5631	0.4029	0.2936	0.5021	Array Heatmap value (peptide array signal) [21]: 0.3313; Array Heatmap value (peptide array signal) [22]: 0.5184; Array Heatmap value (peptide array signal) [23]: 0.4277; Array Heatmap value (peptide array signal) [24]: 0.4647; Array Heatmap value (peptide array signal) [25]: 0.5083; Array Heatmap value (peptide array signal) [26]: 0.311; Array Heatmap value (peptide array signal) [27]: 0.4148; Array Heatmap value (peptide array signal) [28]: 0.2122; Array Heatmap value (peptide array signal) [29]: 0.3291; Array Heatmap value (peptide array signal) [30]: 0.2326; Array Heatmap value (peptide array signal) [31]: 0.5657
H2BK15ac: H2B 1-24 [Peptide H2BK15ac]	0.4221	0.4604	0.3575	0.606	0.7574	0.5537	0.6647	0.6359	0.5436	0.6208	0.4826	0.465	0.3652	0.4832	0.465	0.4161	0.6467	0.457	0.3558	0.5596	Array Heatmap value (peptide array signal) [21]: 0.3521; Array Heatmap value (peptide array signal) [22]: 0.6426; Array Heatmap value (peptide array signal) [23]: 0.4803; Array Heatmap value (peptide array signal) [24]: 0.5678; Array Heatmap value (peptide array signal) [25]: 0.5204; Array Heatmap value (peptide array signal) [26]: 0.3468; Array Heatmap value (peptide array signal) [27]: 0.4303; Array Heatmap value (peptide array signal) [28]: 0.2507; Array Heatmap value (peptide array signal) [29]: 0.361; Array Heatmap value (peptide array signal) [30]: 0.2676; Array Heatmap value (peptide array signal) [31]: 0.5831
H2BK16ac: H2B 1-24 [Peptide H2BK16ac]	0.4203	0.4705	0.3487	0.5943	0.7842	0.5498	0.7223	0.6685	0.5501	0.6054	0.4774	0.4481	0.3562	0.4673	0.4583	0.4534	0.6719	0.4678	0.3335	0.5839	Array Heatmap value (peptide array signal) [21]: 0.3691; Array Heatmap value (peptide array signal) [22]: 0.6297; Array Heatmap value (peptide array signal) [23]: 0.4621; Array Heatmap value (peptide array signal) [24]: 0.5681; Array Heatmap value (peptide array signal) [25]: 0.5633; Array Heatmap value (peptide array signal) [26]: 0.3517; Array Heatmap value (peptide array signal) [27]: 0.501; Array Heatmap value (peptide array signal) [28]: 0.2422; Array Heatmap value (peptide array signal) [29]: 0.3579; Array Heatmap value (peptide array signal) [30]: 0.2759; Array Heatmap value (peptide array signal) [31]: 0.6089
